Laboratory results taken from ChEMBL document CHEMBL4823307, “Discovery of benzimidazole derivatives as potent and selective aldehyde dehydrogenase 1A1 (ALDH1A1) inhibitors with glucose consumption improving activity” (Bioorg Med Chem, 2021).

Tests used:
[1] = system: HepG2; assay: Cytotoxicity against human HepG2 cells assessed as morphological changes at 0.1 to 10 uM incubated for 24 hrs; type: cell-based; settings: hepg2, 24 h, dose 0.1-10 µM
[2] = Cytotoxicity against human HepG2 cells assessed as cell viability at 1 uM incubated for 24 hrs by MTT assay relative to control; type: cell-based; settings: read-out: Activity
[3] = Metabolic stability in human liver microsomes assessed as half life at 2 ug/ml measured up to 45 mins by LC-MS/MS analysis; type: ADME, Microsome; settings: dose 2 µg/ml
[4] = Metabolic stability in human liver microsomes assessed as intrinsic clearance at 2 ug/ml measured up to 45 mins by LC-MS/MS analysis; type: ADME, Microsome; settings: dose 2 µg/ml, read-out: CLH
[5] = Cytotoxicity against human HepG2 cells assessed as cell viability at 0.1 uM incubated for 24 hrs by MTT assay relative to control; type: cell-based; settings: read-out: Activity
[6] = target: T1, Aldehyde dehydrogenase, mitochondrial (Homo sapiens, UniProt P05091); assay: Inhibition of human ALDH2 assessed as NADH formation using propionaldehyde as substrate by spectrophotometry
T1 sequence (P05091 whole entry): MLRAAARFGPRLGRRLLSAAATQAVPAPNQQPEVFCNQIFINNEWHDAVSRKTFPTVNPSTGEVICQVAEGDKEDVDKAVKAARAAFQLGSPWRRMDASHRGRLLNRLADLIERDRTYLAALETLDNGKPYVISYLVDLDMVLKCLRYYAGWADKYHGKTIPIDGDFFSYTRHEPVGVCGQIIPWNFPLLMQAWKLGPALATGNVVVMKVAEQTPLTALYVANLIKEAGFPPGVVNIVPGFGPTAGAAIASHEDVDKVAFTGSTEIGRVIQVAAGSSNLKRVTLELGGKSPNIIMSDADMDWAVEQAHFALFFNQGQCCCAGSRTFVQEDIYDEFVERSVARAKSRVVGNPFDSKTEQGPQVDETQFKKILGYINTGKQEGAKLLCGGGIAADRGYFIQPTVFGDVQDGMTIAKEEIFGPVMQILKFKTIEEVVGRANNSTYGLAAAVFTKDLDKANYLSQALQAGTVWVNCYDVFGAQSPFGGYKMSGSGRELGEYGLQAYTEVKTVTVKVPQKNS

[7] = Cytotoxicity against human HepG2 cells assessed as cell viability at 10 uM incubated for 24 hrs by MTT assay relative to control; type: cell-based; settings: read-out: Activity
[8] = Metabolic stability in human liver microsomes assessed as first order elimination rate constant at 2 ug/ml measured up to 45 mins by LC-MS/MS analysis; type: ADME, Microsome; settings: dose 2 µg/ml
[9] = target: T2, Aldehyde dehydrogenase 1A1 (Homo sapiens, UniProt P00352); assay: Inhibition of human ALDH1A1 assessed as NADH formation using propionaldehyde as substrate by spectrophotometry
T2 sequence (P00352 whole entry): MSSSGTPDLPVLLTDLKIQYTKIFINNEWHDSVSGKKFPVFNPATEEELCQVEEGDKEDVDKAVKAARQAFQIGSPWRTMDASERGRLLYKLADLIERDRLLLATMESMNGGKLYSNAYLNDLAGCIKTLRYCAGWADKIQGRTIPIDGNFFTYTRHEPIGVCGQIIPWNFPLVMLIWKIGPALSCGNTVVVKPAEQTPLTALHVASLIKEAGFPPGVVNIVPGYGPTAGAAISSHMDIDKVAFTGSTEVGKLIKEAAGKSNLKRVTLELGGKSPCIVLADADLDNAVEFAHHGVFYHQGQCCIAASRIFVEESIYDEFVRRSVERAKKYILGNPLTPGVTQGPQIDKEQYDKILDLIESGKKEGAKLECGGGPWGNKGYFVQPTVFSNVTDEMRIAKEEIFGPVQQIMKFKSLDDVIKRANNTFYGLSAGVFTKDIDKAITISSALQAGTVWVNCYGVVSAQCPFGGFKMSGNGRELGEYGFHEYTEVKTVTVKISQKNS

[10] = target: T3, Retinaldehyde dehydrogenase 3 (Homo sapiens, UniProt P47895); assay: Inhibition of human ALDH1A3 assessed as NADH formation using propionaldehyde as substrate by spectrophotometry
T3 sequence (P47895 whole entry): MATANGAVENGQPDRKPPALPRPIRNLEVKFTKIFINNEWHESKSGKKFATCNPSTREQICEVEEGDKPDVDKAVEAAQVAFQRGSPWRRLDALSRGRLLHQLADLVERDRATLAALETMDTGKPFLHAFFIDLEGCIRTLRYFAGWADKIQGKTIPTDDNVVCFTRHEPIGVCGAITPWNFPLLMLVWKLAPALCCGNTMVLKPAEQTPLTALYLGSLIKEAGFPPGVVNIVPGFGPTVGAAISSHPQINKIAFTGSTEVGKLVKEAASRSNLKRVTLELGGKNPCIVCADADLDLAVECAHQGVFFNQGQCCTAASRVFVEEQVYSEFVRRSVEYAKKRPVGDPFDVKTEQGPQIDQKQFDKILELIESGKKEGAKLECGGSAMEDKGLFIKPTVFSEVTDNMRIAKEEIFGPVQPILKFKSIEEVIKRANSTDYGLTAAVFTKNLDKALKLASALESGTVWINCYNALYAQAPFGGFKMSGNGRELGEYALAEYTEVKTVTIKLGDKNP

[11] = system: HepG2; assay: Increase in glucose consumption in human HepG2 cells at 10 uM by glucose oxidase assay; type: functional
[12] = target: T4, Aldehyde dehydrogenase 1A1 (Homo sapiens) (UniProt P00352); assay: Inhibition of human ALDH1A1 assessed as NADH formation using propionaldehyde as substrate at 10 uM by spectrophotometry
T4 sequence (whole entry): T2 sequence (P00352 whole entry)

[13] = target: T5, Retinal dehydrogenase 2 (Homo sapiens, UniProt O94788); assay: Inhibition of human ALDH1A2 assessed as NADH formation using propionaldehyde as substrate by spectrophotometry
T5 sequence (O94788 whole entry): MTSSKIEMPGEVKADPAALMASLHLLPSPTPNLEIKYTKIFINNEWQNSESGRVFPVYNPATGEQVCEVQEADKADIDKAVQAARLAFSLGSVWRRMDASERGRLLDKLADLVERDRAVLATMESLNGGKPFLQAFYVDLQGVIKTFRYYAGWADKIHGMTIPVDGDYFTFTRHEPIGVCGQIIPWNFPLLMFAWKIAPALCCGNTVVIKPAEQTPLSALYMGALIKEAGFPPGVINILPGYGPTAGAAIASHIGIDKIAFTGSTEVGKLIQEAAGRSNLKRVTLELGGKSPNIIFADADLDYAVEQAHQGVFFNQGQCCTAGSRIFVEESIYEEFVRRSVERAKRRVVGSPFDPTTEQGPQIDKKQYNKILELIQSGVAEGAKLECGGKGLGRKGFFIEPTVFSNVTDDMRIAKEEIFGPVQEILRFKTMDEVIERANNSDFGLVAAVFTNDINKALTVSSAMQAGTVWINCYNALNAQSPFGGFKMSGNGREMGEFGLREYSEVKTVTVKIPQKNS

[14] = target: T6, Aldehyde dehydrogenase, dimeric NADP-preferring (Homo sapiens, UniProt P30838); assay: Inhibition of human ALDH3A1 assessed as NADH formation using propionaldehyde as substrate by spectrophotometry
T6 sequence (P30838 whole entry): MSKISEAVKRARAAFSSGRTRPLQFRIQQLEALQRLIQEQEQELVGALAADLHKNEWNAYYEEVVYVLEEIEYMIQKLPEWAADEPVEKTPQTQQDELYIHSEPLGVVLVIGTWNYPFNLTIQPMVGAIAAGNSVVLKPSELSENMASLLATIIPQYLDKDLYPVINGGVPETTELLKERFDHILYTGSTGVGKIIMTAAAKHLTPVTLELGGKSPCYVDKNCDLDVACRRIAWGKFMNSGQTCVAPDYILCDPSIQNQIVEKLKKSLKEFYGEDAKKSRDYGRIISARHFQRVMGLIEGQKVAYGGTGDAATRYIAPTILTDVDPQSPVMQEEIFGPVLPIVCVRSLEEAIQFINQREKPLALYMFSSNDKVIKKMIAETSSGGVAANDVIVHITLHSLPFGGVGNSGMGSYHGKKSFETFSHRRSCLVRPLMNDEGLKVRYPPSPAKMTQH

half-life at 2 ug/ml [3] [min] | microsomal CLint at 2 ug/ml [4] [µL/min/mg] | IC50 [6] [µM] | k el at 0.75 h, 2 ug/ml [8] [s⁻¹] | IC50 [9] [µM] | IC50 [10] [µM] | inhibition [12] [%] | IC50 [13] [µM] | IC50 [14] [µM] | SMILES | Activity [1] | viability at 24 h, 1 µM [2] [%] | viability at 24 h, 0.1 µM [5] [%] | viability at 24 h, 10 µM [7] [%] | Activity [11] [%]
35 | 80 | 0.79 | 0.000333 | 0.243 | 2.12 | 89.1 | 1.58 | – | Cc1cccc(Cn2c(CN3CCN(C(=O)C4CC4)CC3)nc3ccccc32)c1 | Non-Toxic | 91.3 | 93.4 | 90 | 25
– | – | 2.31 | – | 2.11 | 1.01 | 71.6 | 0.89 | 1.45 | O=C(C1CC1)N1CCN(Cc2nc3ccccc3n2Cc2cccc(Cl)c2)CC1 | – | – | – | – | –
27 | 104 | 2.17 | 0.000433 | 0.921 | 0.59 | 82.1 | 1.37 | – | O=C(C1CC1)N1CCN(Cc2nc3ccccc3n2Cc2cccc(C(F)(F)F)c2)CC1 | Non-Toxic | 91.8 | 95.9 | 90 | 30
– | – | 3.23 | – | 0.626 | 1.68 | 85.1 | 2.09 | – | CCC(=O)N1CCN(Cc2nc3ccccc3n2Cc2cccc(C)c2)CC1 | Non-Toxic | 91.8 | 89.7 | 85.4 | 15
– | – | 1.48 | – | 1.5 | 1.27 | 74.3 | 1.62 | 2.15 | CC(C)=CCn1c(CN2CCN(C(=O)C3CC3)CC2)nc2ccccc21 | – | – | – | – | –
32 | 88 | 3.16 | 0.000367 | 1.02 | 2.41 | 78.3 | 1.97 | 1.9 | O=C(C1CC1)N1CCN(Cc2nc3ccccc3n2Cc2ccccc2Cl)CC1 | Non-Toxic | 91.9 | 93.8 | 85.7 | 28
– | – | 2.27 | – | 0.458 | 2.88 | 87.2 | 2.78 | – | Cc1cccc(Cn2c(CN3CCN(C(=O)C(C)C)CC3)nc3ccccc32)c1 | Non-Toxic | 93.7 | 98.4 | 85.7 | 20
